Results: PubChem BioAssay (NCI)
Several values for one entry are separate records, joined by “and”; a condition that tells them apart may be missing. Identical values can stand only once.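 Five compound concentrations were applied to cells in 96-well plates for 48 hours; endpoints were derived by simple linear interpolation of the resulting dose-response curve. GI50 = concentration required for 50% inhibition of growth. Definition used: TGI = concentration required for complete inhibition of growth.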

Legend:
Experiment in all cases: inhibition of tumour cell growth, NCI panel, 48 h
COLO 205 colon = tested on: COLO 205 colon
K-562 leukemia = tested on: K-562 leukemia
ACHN renal = tested on: ACHN renal
HCT-15 colon = tested on: HCT-15 colon
OVCAR-3 ovarian = tested on: OVCAR-3 ovarian
HT29 colon = tested on: HT29 colon
MOLT-4 leukemia = tested on: MOLT-4 leukemia
MDA-MB-435 = tested on: MDA-MB-435
OVCAR-4 ovarian = tested on: OVCAR-4 ovarian
RPMI-8226 leukemia = tested on: RPMI-8226 leukemia

Row | SMILES | TGI (COLO 205 colon) | TGI (K-562 leukemia) | TGI (ACHN renal) | TGI (HCT-15 colon) | TGI (OVCAR-3 ovarian) | TGI (HT29 colon) | TGI (MOLT-4 leukemia) | TGI (MDA-MB-435) | TGI (OVCAR-4 ovarian) | TGI (RPMI-8226 leukemia) | GI50 (COLO 205 colon) | GI50 (HCT-15 colon) | GI50 (MDA-MB-435) | GI50 (MOLT-4 leukemia) | GI50 (RPMI-8226 leukemia)
1 | S=c1[nH]nc(CCCCCCCCc2n[nH]c(=S)o2)o1 | > 100 µM | > 100 µM | > 100 µM | > 100 µM | > 100 µM | > 100 µM | > 100 µM | > 100 µM | > 100 µM | – | – | – | – | – | –
2 | O=CC1=CCC2c3[nH]c4ccccc4c3CCN2C1 (centres undefined) | > 396 µM | > 396 µM | > 396 µM | 156 µM | 314 µM | 273 µM | > 396 µM | – | – | > 396 µM | – | – | – | – | –
3 | CSc1nc[nH]c1C(N)=S | > 100 µM | – | > 100 µM | – | > 100 µM | > 100 µM | > 100 µM | > 100 µM | – | > 100 µM | – | – | – | – | –
4 | CC1(Cl)CC(C)(/C=C/Cl)C(Cl)CC1Cl (centres undefined) | – | 57 µM | 27.8 µM | 27.3 µM | 28 µM | 27.3 µM | > 100 µM | – | 37.1 µM | – | – | – | – | – | –
5 | COc1cccc(CCCNC(=O)Cc2ccccc2CO)c1 | > 100 µM | > 100 µM | > 100 µM | > 100 µM | > 100 µM | > 100 µM | > 100 µM | > 100 µM | > 100 µM | – | – | – | – | – | –
6 | CC(C)(CN1CCCCC1)C(=O)CC(SCCS(=O)(=O)O)c1ccc(Cl)cc1 (centres undefined) | 8.94 µM | 9.91 µM | 17.1 µM | 6.66 µM | 17.9 µM | 12.6 µM | 6.63 µM | 10.6 µM | – | 6.65 µM | – | – | – | – | –
7 | C=CCN1C(=O)CC(=O)N(NC2=NNC3(C(=O)N2)c2ccccc2-c2ccccc23)C1=S | 45 µM | > 100 µM | > 100 µM | > 100 µM | > 100 µM | > 100 µM | – | > 100 µM | > 100 µM | – | – | – | – | – | –
8 | C/C(Nc1ccc(Cl)cc1)=C1/CCOC1=O | – | > 100 µM | > 100 µM | > 100 µM | > 100 µM | > 100 µM | > 76.5 µM | > 100 µM | > 100 µM | 60.3 µM | – | – | – | – | –
9 | CCOC(=O)C1CCC(=O)N1C(=O)c1ccc(Cl)cc1 (centres undefined) | – | > 100 µM | > 100 µM | > 100 µM | > 100 µM | > 100 µM | > 100 µM | > 100 µM | – | > 100 µM | – | – | – | – | –
10 | CC(=O)C(C(C)=O)[C@H]1OC(C)(C)O[C@H]1[C@H]1COC(C)(C)O1 | 32.5 µM | > 100 µM | > 100 µM | > 100 µM | > 100 µM | > 100 µM | > 100 µM | > 100 µM | > 100 µM | – | – | – | – | – | –
11 | C(=C\c1c2oc(-c3ccccc3)cc(-c3ccccc3)c-2c2ccccc12)/C=C1\c2ccccc2-c2c(-c3ccccc3)cc(-c3ccccc3)[o+]c21 | > 100 µM | > 100 µM | > 100 µM | > 100 µM | > 100 µM | > 100 µM | > 100 µM | – | > 100 µM | > 100 µM | – | – | – | – | –
12 | COc1cccc(N=NN2CCCC2)c1 | > 100 µM | > 100 µM | > 100 µM | > 100 µM | > 100 µM | – | > 100 µM | > 100 µM | > 100 µM | > 100 µM | – | – | – | – | –
13 | O=C(c1ccccc1)c1cc(Cl)ccc1NCn1nnc2ccccc21 | > 100 µM | > 100 µM | > 100 µM | > 100 µM | > 100 µM | > 100 µM | > 100 µM | – | > 100 µM | > 100 µM | – | – | – | – | –
14 | CC(C)=CCCC1(C)C2COC(=O)C21 (centres undefined) | > 100 µM | > 100 µM and 27.4 µM | > 100 µM | > 100 µM | – | > 100 µM | – | > 100 µM | > 100 µM | > 100 µM | > 100 µM and 34.2 µM | > 100 µM and 37 µM | > 100 µM and 43.6 µM | – | –
15 | COC(=O)c1ccccc1C1CN=NC12Cc1c(C)ccc(C)c1C2=O (centres undefined) | > 100 µM | > 100 µM | > 100 µM | > 100 µM | > 100 µM | > 100 µM | > 100 µM | > 100 µM | > 100 µM | – | – | – | – | – | –
16 | COC(=O)[C@@H]1COC(=O)N1 | > 100 µM | > 100 µM | > 100 µM | > 100 µM | > 100 µM | > 100 µM | > 100 µM | > 100 µM | > 100 µM | – | – | – | – | – | –
17 | COC(=O)C(NC(=O)c1ccccc1)C(c1c(O)cc(O)cc1O)P(=O)(OC)OC (centres undefined) | > 100 µM | > 100 µM | > 100 µM | > 100 µM | – | > 100 µM | > 100 µM | – | > 100 µM | > 100 µM | – | – | – | – | –
18 | CCCCCCCCCCCCC1N=C(N)N2CCCC2=C1C(=O)OC (centres undefined) | 4.17 µM | 2.91 µM | 19.5 µM | 3.11 µM | 5.11 µM | 3.06 µM | 4.22 µM | 3.09 µM | 5.86 µM | – | – | – | – | – | –
19 | CCOC(=O)C1C(c2ccc(OC)cc2)c2c([nH]n(-c3ccccc3)c2=O)CC1(C)O (centres undefined) | 50.4 µM | – | > 100 µM | > 100 µM | > 100 µM | > 100 µM | 6.35 µM | > 100 µM | > 100 µM | > 100 µM | – | – | – | – | –
20 | CC(=O)O[C@H]1C(=O)[C@@]2(C)[C@H]([C@H](OC(=O)c3ccco3)[C@]3(O)C[C@H](OC(=O)[C@H](O)[C@@H](NC(=O)c4ccccc4)c4ccccc4)C(C)=C1C3(C)C)[C@]1(OC(C)=O)CO[C@@H]1C[C@@H]2O | > 5.82 µM | – | > 25 µM | > 25 µM | 0.225 µM | > 25 µM | > 25 µM | 0.0591 µM | > 25 µM | 0.131 µM | – | – | – | – | –
21 | Cc1ccc(-n2cc(-c3ccc(Cl)cc3)c3c(=N)n(N)cnc32)cc1 | 20.7 µM | 47.6 µM | 29.7 µM | 28.9 µM | 26.5 µM | 20.6 µM | – | 23.1 µM | 22.5 µM | – | – | – | – | – | –
22 | CCC(=C/[C@H](C)C/C=C/C(C)=C/[C@@H](C)C(=O)[C@@H](C)[C@H](O)[C@@H](C)CC)/C=C/[C@H]1CC=CC(=O)O1 | 0.0428 µM | – | 1.89 µM and 10.9 µM | 1.78 µM | – | 2.48 µM and 10.7 µM | – | 0.166 µM | 12 µM | – | – | – | – | < 0.0012 µM | < 0.0012 µM
23 | Cn1c(NC(=O)NC23CC4CC(CC(C4)C2)C3)nc2ccccc21 | > 100 µM | > 100 µM | > 100 µM | > 100 µM | > 100 µM | > 100 µM | > 100 µM | – | 28.5 µM | > 100 µM | – | – | – | – | –
